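Values below derive from 48-hour exposures of cells grown in 96-well plates, with endpoints linearly interpolated between the two concentrations bracketing the appropriate inhibition level. At the GI50, growth is halved.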 Active and inactive are the calls of the source. Rule as the data show it: active = GI50 up to about 1.1 µM and inactive = higher.
Legend:
Test in all cases: DTP human tumour cell line panel, 48 h
BT-549 = system: BT-549
DLD-1 = system: DLD-1
DMS-114 = system: DMS-114
HOP-18 = system: HOP-18
LXFL 529 = system: LXFL 529
M19-MEL = system: M19-MEL
RXF 631 = system: RXF 631
DMS-273 = system: DMS-273
XF498 = system: XF498

Structure (SMILES)	GI50 (BT-549)	GI50 (DLD-1)	GI50 (HOP-18)	GI50 (LXFL 529)	GI50 (DMS-273)	also measured
COc1c(O)ccc2c1CN1CCc3cc4c(cc3C1C2)OCO4 (configuration not stated)	28.2 µM (inactive)					
Nc1[nH]nc2ccccc12	> 100 µM (inactive)					
CCOC(=O)c1c(N=C(S)Nc2ccc(Cl)cc2)sc2c1CCN(C)C2	78.9 µM (inactive)					
COc1cc2c(c(O)c1C)C(=O)CC(c1ccccc1)O2 (configuration not stated)		55.2 µM (inactive)	61 µM (inactive)	56.2 µM (inactive)		GI50 (DMS-114): 50.7 µM (inactive); GI50 (M19-MEL): 45.8 µM (inactive); GI50 (RXF 631): 41.4 µM (inactive)
Nc1ccc(Oc2ccc(C34CC5C6CC7(c8ccc(Oc9ccc(N)cc9)cc8)CC5C(C3)C(C7)C6C4)cc2)cc1	> 100 µM (inactive)					
O=C1C(C2=[N+]([O-])c3ccccc3C2=O)=[N+]([O-])c2ccccc21		23.9 µM (inactive)	20.2 µM (inactive)	17 µM (inactive)	30.9 µM (inactive)	GI50 (DMS-114): 17.9 µM (inactive); GI50 (M19-MEL): 24.3 µM (inactive)
COC(=O)c1c(O)ccc2c1c1c(n2-c2ccc(OC)cc2)C(=O)c2ccccc2C1=O	22 µM (inactive)					
COc1cc([C@@H]2c3cc4c(cc3[C@@H](NC(=O)c3cccc(C#N)c3)C3COC(=O)[C@@H]32)OCO4)cc(OC)c1O (some centres not stated)		2 µM (inactive)	> 100 µM (inactive)	5.93 µM (inactive)	0.0847 µM (active)	GI50 (RXF 631): 1.56 µM (inactive)
CCOC(=O)CC(=O)NC1CC2CCC1(C)C2(C)C (configuration not stated)	> 100 µM (inactive)					
O=C(CC(=O)N1N=C(N2CCCCC2)CC1c1ccccc1)Nc1ccccc1 (configuration not stated)	> 100 µM (inactive)					
CC[n+]1[b-](C(C)(C)C)n(/N=C(\C)C(C)(C)C)[b-](C(C)(C)C)[n+]1CC	> 100 µM (inactive)					
[O-][Cl+3]([O-])([O-])[O-].c1ccc(-c2[o+]c(-c3ccccc3)c(-c3ccccc3)c(-c3ccccc3)c2-c2ccccc2)cc1		> 100 µM (inactive)	> 100 µM (inactive)	> 100 µM (inactive)	> 100 µM (inactive)	GI50 (M19-MEL): > 100 µM (inactive); GI50 (RXF 631): > 100 µM (inactive)
COC(C)(C)C1=CCC(C)CC1 (configuration not stated)	> 100 µM (inactive)					
CNC1Cc2c[nH]c3cccc(c23)C12C=C(C)C(=O)O2 (configuration not stated)	> 100 µM (inactive)					
O=C(CN1CCCCC1)CC(O)(C(F)(F)F)C(F)(F)F	> 100 µM (inactive)					
Cc1ccc(Cn2c(C)nc3c2C(=O)c2ccccc2C3=O)cc1		1.22 µM (inactive)		1.72 µM (inactive)	1.07 µM (active)	GI50 (M19-MEL): 7.05 µM (inactive); GI50 (XF498): 15.1 µM (inactive)
CC[C@@H]1CC[C@@H]2[C@H](CC[C@]3(C)[C@@H](O[N+](=O)[O-])CC[C@@H]23)[C@H]1C(C)=O	50 µM (inactive)					
O=C1CCCc2ccc3c(c21)CC1(Cc2cc4c(cc2C1)CCCC4)C3	25.1 µM (inactive)					
O=C(CN1CCCC1=O)CS(=O)(=O)c1ccccc1	> 100 µM (inactive)					
C/C=C/[C@@H]1[C@H]2C(=O)[C@]3(Cl)[C@@H](/C=C/C)[C@@H]3C(=O)[C@@]12Cl	> 100 µM (inactive)					
COc1cc(CNC(=O)CCCCCCCCCCSSCCCCCCCCCCC(=O)NCc2ccc(O)c(OC)c2)ccc1O	> 10 µM (inactive)					
COc1cc(Nc2nc3ccccc3nc2-c2cccs2)cc(OC)c1OC		23.7 µM (inactive)	> 100 µM (inactive)	17.3 µM (inactive)	29.2 µM (inactive)	GI50 (M19-MEL): 40.5 µM (inactive); GI50 (XF498): 19.2 µM (inactive)

Structure (SMILES)	GI50 (BT-549)	GI50 (DLD-1)	GI50 (HOP-18)	GI50 (LXFL 529)	GI50 (DMS-273)	also measured
C[N+]12C=CC=C1C(N1CCCC1)c1scc(-c3ccc(Br)cc3)c12 (configuration not stated)	1.79 µM (inactive)					
CN(C)c1ccc(/C=N\NC(=O)Nc2cccc3ccccc23)cc1	11.7 µM (inactive)					
Cc1ccc(NNc2cc(=O)[nH]c(=O)[nH]2)cc1Cl	41.1 µM (inactive)					
CC(C)(C)c1cc([Si](C)(C)C)c(C#N)c([Si](C)(C)C)c1		> 100 µM (inactive)	> 100 µM (inactive)	> 100 µM (inactive)	49.1 µM (inactive)	GI50 (DMS-114): 33.8 µM (inactive); GI50 (M19-MEL): 43.2 µM (inactive); GI50 (XF498): 24.2 µM (inactive)
CC1=NC(=Cc2ccc([N+](=O)[O-])cc2)C(=O)N1n1c(-c2ccccc2)nc2ccccc2c1=O	85.3 µM (inactive)					
O=C1CN(c2ccc(Cl)cc2)C(=O)CN1NCNN1CC(=O)N(c2ccc(Cl)cc2)CC1=O	> 100 µM (inactive)					
COc1ccc(/C(=N\NC(=O)C(N)=O)C(c2ccc(OC)cc2)C2(O)C(=O)Nc3c(Cl)cccc32)cc1 (configuration not stated)		> 100 µM (inactive)	> 100 µM (inactive)	> 100 µM (inactive)		GI50 (DMS-114): > 100 µM (inactive); GI50 (M19-MEL): > 100 µM (inactive); GI50 (XF498): > 100 µM (inactive)
CC1=Nc2ccccc2SC(c2c(Cl)cccc2Cl)C1 (configuration not stated)		0.331 µM (active)	3.51 µM (inactive)	0.5 µM (active)	0.792 µM (active)	GI50 (DMS-114): 1.52 µM (inactive); GI50 (M19-MEL): 1.16 µM (inactive); GI50 (XF498): 1.8 µM (inactive)
Cc1cc(O)nc(NNC(C#N)c2ccco2)n1 (configuration not stated)		> 100 µM (inactive)	> 100 µM (inactive)	> 100 µM (inactive)	> 100 µM (inactive)	GI50 (DMS-114): > 100 µM (inactive); GI50 (M19-MEL): > 100 µM (inactive)
CC(C)N(C(=O)C12CC3CC(CC(C3)C1)C2)C(C)C		> 50 µM (inactive)	> 50 µM (inactive)	> 50 µM (inactive)	> 50 µM (inactive)	GI50 (DMS-114): > 50 µM (inactive); GI50 (M19-MEL): > 50 µM (inactive)
COc1ccc(OC)c(CNc2ccc(C(=O)O)cc2)c1	> 100 µM (inactive)					
Nc1nc(S)c2c(N)n[nH]c2c1C(=O)Nc1ccccc1	> 100 µM (inactive)					
CC(=O)Oc1cc(OC(C)=O)c(OC(C)=O)c2c1CC1C(=O)C3(CCc4ccccc43)C(=O)C1C2 (configuration not stated)		14.2 µM (inactive)	28.5 µM (inactive)	14.4 µM (inactive)	18.1 µM (inactive)	GI50 (DMS-114): 11.7 µM (inactive); GI50 (M19-MEL): 15.7 µM (inactive); GI50 (XF498): 14.7 µM (inactive)
CC1=C2C(=O)c3ccccc3C(=O)[C@H]2[C@H]2CCO[C@H]2O1	13.3 µM (inactive)					
CC1CC(C#N)=C2NCCN2C1=O (configuration not stated)	> 100 µM (inactive)					
COc1ccccc1-n1c(C)nc2ccccc2c1=O		> 100 µM (inactive)	> 100 µM (inactive)	> 100 µM (inactive)	> 100 µM (inactive)	GI50 (DMS-114): > 100 µM (inactive); GI50 (M19-MEL): > 100 µM (inactive)
Cc1cc(O)nc(NNC(C#N)c2cccc([N+](=O)[O-])c2)n1 (configuration not stated)		> 100 µM (inactive)	> 100 µM (inactive)	> 100 µM (inactive)	> 100 µM (inactive)	GI50 (DMS-114): > 100 µM (inactive); GI50 (M19-MEL): > 100 µM (inactive)
O=C1c2cccnc2S(=O)(=O)N1c1ccc(Oc2ccccc2)cc1	> 100 µM (inactive)					
C=CCCON(C(=O)OC(C)(C)C)C(C)(C)C	> 100 µM (inactive)					
Cc1ccc(/N=C/C=C(\Nc2ccc(C)cc2)c2ccc3ccccc3c2)cc1	2.33 µM (inactive)					
S=C(N/N=C(/c1ccccc1)c1ccccn1)N1CCCCC1	1.25 µM (inactive)					
CN(C)C(=S)/N=c1\ssc(=S)n1Cc1ccccc1	> 100 µM (inactive)	0.348 µM (active)	2.22 µM (inactive)	0.459 µM (active)	0.25 µM (active)	GI50 (DMS-114): 0.201 µM (active); GI50 (M19-MEL): 0.318 µM (active); GI50 (XF498): 0.21 µM (active)

Structure (SMILES)	GI50 (BT-549)	GI50 (DLD-1)	GI50 (HOP-18)	GI50 (LXFL 529)	GI50 (DMS-273)	also measured
Cc1ccc(CC(C)N)cc1 (configuration not stated)		> 100 µM (inactive)	> 100 µM (inactive)	> 100 µM (inactive)	> 100 µM (inactive)	GI50 (DMS-114): > 100 µM (inactive); GI50 (RXF 631): > 100 µM (inactive)
COc1cc(C(C#N)NNC(=O)Cc2ccccc2)cc(OC)c1OC (configuration not stated)		> 100 µM (inactive)	> 100 µM (inactive)	> 100 µM (inactive)	> 100 µM (inactive)	GI50 (DMS-114): 99.1 µM (inactive); GI50 (M19-MEL): > 100 µM (inactive)
COc1cc2oc(=O)cc(C)c2cc1O	> 100 µM (inactive)					
N#Cc1c(-c2ccccc2)cc(Nc2ccc(F)cc2)n2c1nc1ccccc12	3.24 µM (inactive)					
c1ccc2c(c1)[nH]c1nc3cc(-c4ccc5nc6c(nc5c4)[nH]c4ccccc46)ccc3nc12	> 100 µM (inactive)					
CC/C(CC(=O)CCC(=O)Nc1ccccc1[N+](=O)[O-])=N/NC(=O)C[n+]1ccccc1			> 100 µM (inactive)	> 100 µM (inactive)	> 100 µM (inactive)	GI50 (M19-MEL): > 100 µM (inactive); GI50 (RXF 631): > 100 µM (inactive)
CC1CC/C(=C\c2ccc(Cl)cc2)c2nc(N)c(C#N)c(-c3ccc(Cl)cc3)c21 (configuration not stated)	75.5 µM (inactive)					
CN(Cc1ccccc1)C1(N(C)Cc2ccccc2)CC1		> 100 µM (inactive)	> 100 µM (inactive)	> 100 µM (inactive)	> 100 µM (inactive)	GI50 (DMS-114): > 100 µM (inactive); GI50 (M19-MEL): > 100 µM (inactive); GI50 (XF498): > 100 µM (inactive)
COC12C=CC(CC1)c1c(O)ccc(O)c12 (configuration not stated)		50.4 µM (inactive)	> 100 µM (inactive)	25.4 µM (inactive)	46 µM (inactive)	GI50 (DMS-114): 47.1 µM (inactive); GI50 (M19-MEL): 22.5 µM (inactive); GI50 (XF498): 19.7 µM (inactive)
CC1CC(=O)NC2CC1C2(C)C (configuration not stated)	> 100 µM (inactive)					
CCC1(CC)C(=O)N(C(=O)c2ccc(C)cc2)N(C(=O)c2ccc(C)cc2)C1=O	> 75 µM (inactive)					
CN/C(=N\N=C1/C(=O)Nc2ccccc21)SCC(=O)c1ccc(Br)cc1	68.1 µM (inactive)					
COc1cc(/C=C/C(=O)N[C@@H]2C(=O)N3[C@@H]2SC(C)(C)[C@@H]3C(=O)O)cc(OC)c1OC	> 100 µM (inactive)					
CCOC1c2cc(C(C)C)c(O)c(O)c2[C@@]23CCCC(C)(C)C2C1OC3=O (some centres not stated)		61.7 µM (inactive)		> 100 µM (inactive)	> 100 µM (inactive)	GI50 (DMS-114): 62.4 µM (inactive); GI50 (M19-MEL): > 100 µM (inactive)
C/C(=C(/C)c1cc[n+](C)cc1)c1cc[n+](C)cc1		39.9 µM (inactive)	> 75 µM (inactive)	69.8 µM (inactive)	36.1 µM (inactive)	GI50 (DMS-114): 16.2 µM (inactive)
CC1(C)OC1COc1c2occc2cc2ccc(=O)oc12 (configuration not stated)	38.8 µM (inactive)					
CON(C)C(=O)C(C)NC(=O)OCc1ccccc1 (configuration not stated)	> 100 µM (inactive)					
COc1ccc(-c2c3c(cc4cc5c(cc24)OCO5)C(=O)OC3)cc1OC	0.51 µM (active)					
CC(=O)OCCOc1cc2c([nH]c3ccccc32)c(C)c2cccc1-2	2.75 µM (inactive)					
CC(C)Cc1cc2c(cc1O)CCC1C2CC[C@@]2(C)C1CC[C@@H]2O (some centres not stated)	2.96 µM (inactive)					
NC(Cc1cc(I)c(Oc2ccc(O)c(I)c2)c(I)c1)C(=O)O (configuration not stated) [RATHYRONINE]	61.1 µM (inactive)					

— ChEMBL document CHEMBL1201862, “PubChem BioAssay data set” (2004)
